Laboratory results published in patent US11000708B2 (priority 2015, dated 2021).
“And” between values parts separate entries of the source, which are not always exact repeats. Identical values can stand only once. Like-named read-outs stand apart in the source and are kept apart here.

Key:
[1] = test system: clinically-separated Mycobacterium tuberculosis strains; format: cell-based
[2] = test system: 518 clinically-separated Mycobacterium tuberculosis strains; details: cited from earlier work
[3] = 518 clinically-separated strains
[4] = among 321 strains resistant to one or more first-line drugs

NNC(=O)c1ccncc1 [Isoniazid, isoniazid]
growth of bacterial colonies on drug-containing culture medium ([1]; isoniazid 0.2 μg/ml, Table 4, per clinical strain): 4+ (positive (4+) if the bacterial colonies closely grow on the slant face of the culture medium and account for ¾ or more of the area of the slant face) and 3+ (positive (3+) if the bacterial colonies closely grow on the slant face of the culture medium or are partially fused and account for ½ or more of the slant face and ¾ or less of the slant face)
resistance rate of Mycobacterium tuberculosis [2, 3]: 53.67%

CO[C@H]1/C=C/O[C@@]2(C)Oc3c(C)c(O)c4c(O)c(c(/C=N/N5CCN(C)CC5)c(O)c4c3C2=O)NC(=O)/C(C)=C\C=C\[C@H](C)[C@H](O)[C@@H](C)[C@@H](O)[C@@H](C)[C@H](OC(C)=O)[C@@H]1C [Rifampicin, rifampicin]
growth of bacterial colonies on drug-containing culture medium ([1]; rifampicin 50 μg/ml, Table 5, per clinical strain): 4+ (positive (4+) if the bacterial colonies closely grow on the slant face of the culture medium and account for ¾ or more of the area of the slant face) and 3+ (positive (3+) if the bacterial colonies closely grow on the slant face of the culture medium or are partially fused and account for ½ or more of the slant face and ¾ or less of the slant face) and 2+ (positive (2+) if the bacterial colonies dispersedly grow on the slant face of the culture medium and account for ¼ or more of the slant face and ½ or less of the slant face)
growth of bacterial colonies on drug-containing culture medium ([1]; rifampicin 50 μg/ml, Table 6, isoniazid- and rifampicin-resistant clinical strains): 4+ (positive (4+) if the bacterial colonies closely grow on the slant face of the culture medium and account for ¾ or more of the area of the slant face) and 3+ (positive (3+) if the bacterial colonies closely grow on the slant face of the culture medium or are partially fused and account for ½ or more of the slant face and ¾ or less of the slant face) and 2+ (positive (2+) if the bacterial colonies dispersedly grow on the slant face of the culture medium and account for ¼ or more of the slant face and ½ or less of the slant face)

NCC[C@H](O)C(=O)N[C@@H]1C[C@H](N)[C@@H](O[C@H]2O[C@H](CN)[C@@H](O)[C@H](O)[C@H]2O)[C@H](O)[C@H]1O[C@H]1O[C@H](CO)[C@@H](O)[C@H](N)[C@H]1O [amikacin]
resistance rate of Mycobacterium tuberculosis [2, 3]: 15.83%
resistance rate of Mycobacterium tuberculosis [2, 4]: 25.55%

[H]/N=C(/N)N[C@H]1[C@H](O)[C@@H](O)[C@H](O[C@@H]2O[C@@H](C)[C@](O)(C=O)[C@H]2O[C@@H]2O[C@@H](CO)[C@H](O)[C@@H](O)[C@@H]2NC)[C@@H](N/C(N)=N\[H])[C@@H]1O [streptomycin]
resistance rate of Mycobacterium tuberculosis [2, 3]: 45.95%

capreomycin
resistance rate of Mycobacterium tuberculosis [2, 3]: 21.81%
resistance rate of Mycobacterium tuberculosis [2, 4]: 33.02%

carrimycin
number of strains sensitive to 1 μg/ml of carrimycin ([1]; 1 μg/ml): 54 strains
share of total effective bacteria sensitive to 1 μg/ml of carrimycin ([1]; 1 μg/ml): 31.39%
number of strains with activity superior to that of isoniazid and that of rifampicin ([1]; 20 μg/ml carrimycin vs 1 μg/ml isoniazid and 250 μg/ml rifampicin): 23 strains
number of strains with activity superior to that of isoniazid ([1]; 20 μg/ml carrimycin, isoniazid-resistant clinical strains): 37 strains
number of strains with activity superior to that of rifampicin ([1]; 20 μg/ml carrimycin, rifampicin-resistant clinical strains): 39 strains
total effective rate ([1]; 172 of 240 clinically-separated strains): 71.66%
share of effective strains with activity superior to isoniazid ([1]; of 172 effective strains): 21.5%
share of effective strains with activity superior to isoniazid and rifampicin ([1]; of 172 effective strains): 13.4%
share of effective strains with activity superior to rifampicin ([1]; of 172 effective strains): 22.7%
share of effective strains with sensitivity equivalent to H37Rv ([1]; of 172 effective strains): 53.48%
number of strains with sensitivity equivalent to that of quality control strains H37Rv ([1]; of 172 sensitive strains): 92 strains
number of strains with sensitivity obviously higher than that of quality control strains H37Rv ([1]; of 172 sensitive strains): 80 strains
number of strains sensitive to carrimycin ([1]; of 240 clinically-separated strains, 1 μg/ml or 20 μg/ml): 172 strains
